Patent publication US20100004128A1, “HERBICIDAL ISOXAZOLINE COMPOUNDS” (SYNGENTA CROP PROTECTION, INC., priority 2006, published 2010)

Columns and labels:
[1] = tested on: Monocotyledonous and dicotyledonous test plants; experiment: Herbicidal action, application pre-emergence; format: in vivo; set-up: key: 10=total damage to plant; 0=no damage to plant; conditions: spray solution 1000 mg/l, scale 0-10; for Herbicidal action (damage score) AGSTE: Agrostis tenius; for Herbicidal action (damage score) AMARE: Amaranthus retroflexus; for Herbicidal action (damage score) DIGSA: Digitaria sanguinalis; for Herbicidal action (damage score) POATR: Poa trivialis; for Herbicidal action (damage score) SETFA: Setaria faberi; for Herbicidal action (damage score) SETIT: Setaria italica
Procedure: Monocotyledonous and dicotyledonous test plants were sown in sterilised standard soil in seed trays each having 96 cells. After one day (pre-emergence) or after 8 to 9 days cultivation (post-emergence) under controlled conditions in a climatic chamber (cultivation at 23/17° C., day/night; 13 hours light; 50-60% humidity; after application at 24/19° C., day/night), the plants were treated with an aqueous spray solution of 1000 mg/l of the active ingredient used (incl. 10% DMSO as solvent). The plants were grown on in the climatic chamber until the test was evaluated (10=total damage to plant, 0=no damage to plant) after 9 or 13 days.

CCn1ncc(C(F)(F)[S+]([O-])C2=NOC(C)(C)C2)n1 (stereo not shown) [1.40]
Herbicidal action (damage score) AGSTE [1]: 10
Herbicidal action (damage score) AMARE [1]: 10
Herbicidal action (damage score) DIGSA [1]: 9
Herbicidal action (damage score) POATR [1]: 10
Herbicidal action (damage score) SETFA [1]: 9

Cc1nn(C(C)C)nc1C(F)(F)S(=O)(=O)C1=NOC(C)(C)C1 [1.41]
Herbicidal action (damage score) AGSTE [1]: 10
Herbicidal action (damage score) AMARE [1]: 10
Herbicidal action (damage score) DIGSA [1]: 10
Herbicidal action (damage score) POATR [1]: 10
Herbicidal action (damage score) SETFA [1]: 9

COc1nn(C)nc1C(F)(F)S(=O)(=O)C1=NOC(C)(C)C1 [1.43]
Herbicidal action (damage score) AGSTE [1]: 10
Herbicidal action (damage score) AMARE [1]: 10
Herbicidal action (damage score) DIGSA [1]: 10
Herbicidal action (damage score) POATR [1]: 0
Herbicidal action (damage score) SETFA [1]: 10

COc1nn(C)nc1C(F)(F)[S+]([O-])C1=NOC(C)(C)C1 (stereo not shown) [1.44]
Herbicidal action (damage score) AGSTE [1]: 10
Herbicidal action (damage score) AMARE [1]: 10
Herbicidal action (damage score) DIGSA [1]: 10
Herbicidal action (damage score) POATR [1]: 0
Herbicidal action (damage score) SETFA [1]: 9

Cn1nc(Br)c(C(F)S(=O)(=O)C2=NOC(C)(C)C2)n1 (stereo not shown) [1.45]
Herbicidal action (damage score) AGSTE [1]: 10
Herbicidal action (damage score) AMARE [1]: 9
Herbicidal action (damage score) DIGSA [1]: 10
Herbicidal action (damage score) POATR [1]: 10
Herbicidal action (damage score) SETFA [1]: 9

Cn1nc(Br)c(C(F)(F)S(=O)(=O)C2=NOC(C)(C)C2)n1 [1.46]
Herbicidal action (damage score) AGSTE [1]: 10
Herbicidal action (damage score) AMARE [1]: 10
Herbicidal action (damage score) DIGSA [1]: 10
Herbicidal action (damage score) POATR [1]: 10
Herbicidal action (damage score) SETFA [1]: 9

Cn1nc(Br)c(C(F)(F)[S+]([O-])C2=NOC(C)(C)C2)n1 (stereo not shown) [1.47]
Herbicidal action (damage score) AGSTE [1]: 10
Herbicidal action (damage score) AMARE [1]: 10
Herbicidal action (damage score) DIGSA [1]: 9
Herbicidal action (damage score) POATR [1]: 10
Herbicidal action (damage score) SETFA [1]: 9

CC1(C)CC(S(=O)(=O)C(F)(F)c2nn(CC3CCC3)nc2C(F)(F)F)=NO1 [1.48]
Herbicidal action (damage score) AGSTE [1]: 10
Herbicidal action (damage score) AMARE [1]: 9
Herbicidal action (damage score) DIGSA [1]: 10
Herbicidal action (damage score) POATR [1]: 6
Herbicidal action (damage score) SETFA [1]: 9

CC1(C)CC([S+]([O-])C(F)(F)c2nn(CC3CCC3)nc2C(F)(F)F)=NO1 (stereo not shown) [1.49]
Herbicidal action (damage score) AGSTE [1]: 10
Herbicidal action (damage score) AMARE [1]: 9
Herbicidal action (damage score) DIGSA [1]: 10
Herbicidal action (damage score) POATR [1]: 10
Herbicidal action (damage score) SETFA [1]: 9

CC1(C)CC(S(=O)(=O)C(F)(F)c2cn(C(C)(C)C)nn2)=NO1 [2.02]
Herbicidal action (damage score) AGSTE [1]: 9
Herbicidal action (damage score) AMARE [1]: 3
Herbicidal action (damage score) DIGSA [1]: 9
Herbicidal action (damage score) POATR [1]: 9
Herbicidal action (damage score) SETFA [1]: 8

CC1(C)CC([S+]([O-])C(F)(F)c2cn(C(C)(C)C)nn2)=NO1 (stereo not shown) [2.04]
Herbicidal action (damage score) AGSTE [1]: 6
Herbicidal action (damage score) AMARE [1]: 0
Herbicidal action (damage score) DIGSA [1]: 2
Herbicidal action (damage score) POATR [1]: 0
Herbicidal action (damage score) SETFA [1]: 6

Cn1nnc(C(F)(F)F)c1C(F)(F)S(=O)(=O)C1=NOC(C)(C)C1 [3.02]
Herbicidal action (damage score) AGSTE [1]: 10
Herbicidal action (damage score) AMARE [1]: 10
Herbicidal action (damage score) DIGSA [1]: 10
Herbicidal action (damage score) POATR [1]: 10
Herbicidal action (damage score) SETIT [1]: 10

Cn1nnc(Br)c1C(F)(F)[S+]([O-])C1=NOC(C)(C)C1 (stereo not shown) [3.06]
Herbicidal action (damage score) AGSTE [1]: 10
Herbicidal action (damage score) AMARE [1]: 10
Herbicidal action (damage score) DIGSA [1]: 9
Herbicidal action (damage score) POATR [1]: 10
Herbicidal action (damage score) SETFA [1]: 9

Cn1nc(CF)c(C(F)(F)S(=O)(=O)C2=NOC(C)(C)C2)n1 [Compound No. 1.01, 4-[(5,5-dimethyl-4,5-dihydro-isoxazole-3-sulfonyl)-difluoro-methyl]-5-fluoromethyl-2-methyl-2H-[1,2,3]triazole]
melting point: 54 °C
Herbicidal action (damage score) AGSTE [1]: 10
Herbicidal action (damage score) AMARE [1]: 10
Herbicidal action (damage score) DIGSA [1]: 10
Herbicidal action (damage score) POATR [1]: 10
Herbicidal action (damage score) SETIT [1]: 10

Cn1nc(CF)c(C(F)(Cl)S(=O)(=O)C2=NOC(C)(C)C2)n1 (stereo not shown) [Compound No. 1.03, 4-[chloro-(5,5-dimethyl-4,5-dihydro-isoxazole-3-sulfonyl)-fluoro-methyl]-5-fluoromethyl-2-methyl-2H-[1,2,3]triazole]
melting point: 80 °C
Herbicidal action (damage score) AGSTE [1]: 10
Herbicidal action (damage score) AMARE [1]: 8
Herbicidal action (damage score) DIGSA [1]: 10
Herbicidal action (damage score) POATR [1]: 10
Herbicidal action (damage score) SETIT [1]: 9

Cc1nn(C)nc1C(F)S(=O)(=O)C1=NOC(C)(C)C1 (stereo not shown) [Compound No. 1.04, 4-[(5,5-dimethyl-4,5-dihydro-isoxazole-3-sulfonyl)-fluoro-methyl]-2,5-dimethyl-2H-[1,2,3]triazole]
Herbicidal action (damage score) AGSTE [1]: 10
Herbicidal action (damage score) AMARE [1]: 9
Herbicidal action (damage score) DIGSA [1]: 10
Herbicidal action (damage score) POATR [1]: 10
Herbicidal action (damage score) SETIT [1]: 9

Cc1nn(C)nc1C(F)(F)S(=O)(=O)C1=NOC(C)(C)C1 [Compound No. 1.05]
Herbicidal action (damage score) AGSTE [1]: 10
Herbicidal action (damage score) AMARE [1]: 10
Herbicidal action (damage score) DIGSA [1]: 10
Herbicidal action (damage score) POATR [1]: 10
Herbicidal action (damage score) SETIT [1]: 10

Cc1nn(C)nc1C(F)(F)[S+]([O-])C1=NOC(C)(C)C1 (stereo not shown) [Compound No. 1.08, 4-[(5,5-dimethyl-4,5-dihydro-isoxazole-3-sulfinyl)-difluoro-methyl]-2,5-dimethyl-2H-1,2,31-triazole]
Herbicidal action (damage score) AGSTE [1]: 10
Herbicidal action (damage score) AMARE [1]: 10
Herbicidal action (damage score) DIGSA [1]: 10
Herbicidal action (damage score) POATR [1]: 10
Herbicidal action (damage score) SETFA [1]: 9

CC1(C)CC(S(=O)(=O)C(F)c2cn(C(C)(C)C)nn2)=NO1 (stereo not shown) [Compound No. 2.01]
Herbicidal action (damage score) AGSTE [1]: 10
Herbicidal action (damage score) AMARE [1]: 3
Herbicidal action (damage score) DIGSA [1]: 9
Herbicidal action (damage score) POATR [1]: 0
Herbicidal action (damage score) SETFA [1]: 9

Cn1nnc(C(F)(F)F)c1C(F)S(=O)(=O)C1=NOC(C)(C)C1 (stereo not shown) [Compound No. 3.01]
Herbicidal action (damage score) AGSTE [1]: 10
Herbicidal action (damage score) AMARE [1]: 5
Herbicidal action (damage score) DIGSA [1]: 10
Herbicidal action (damage score) POATR [1]: 10
Herbicidal action (damage score) SETIT [1]: 8

Cn1nnc(C(F)(F)F)c1C(F)(F)[S+]([O-])C1=NOC(C)(C)C1 (stereo not shown) [Compound No. 3.03]
Herbicidal action (damage score) AGSTE [1]: 10
Herbicidal action (damage score) AMARE [1]: 10
Herbicidal action (damage score) DIGSA [1]: 9
Herbicidal action (damage score) POATR [1]: 10
Herbicidal action (damage score) SETFA [1]: 8

Cn1nnc(Br)c1C(F)(F)S(=O)(=O)C1=NOC(C)(C)C1 [Compound No. 3.04]
Herbicidal action (damage score) AGSTE [1]: 10
Herbicidal action (damage score) AMARE [1]: 10
Herbicidal action (damage score) DIGSA [1]: 9
Herbicidal action (damage score) POATR [1]: 10
Herbicidal action (damage score) SETFA [1]: 9
